Test results published in ChEMBL document CHEMBL5634092, “Design, synthesis, and biological evaluation of novel HDAC/CD13 dual inhibitors for the treatment of cancer” (Eur J Med Chem, 2023).

Tests used:
[1] = target: T1, Aminopeptidase N (Sus scrofa, UniProt P15145); assay: Inhibition of porcine kidney CD13 using L-leucine-p-nitroanilide as substrate incubated for 30 mins by microplate reader analysis
T1 sequence (P15145 whole entry): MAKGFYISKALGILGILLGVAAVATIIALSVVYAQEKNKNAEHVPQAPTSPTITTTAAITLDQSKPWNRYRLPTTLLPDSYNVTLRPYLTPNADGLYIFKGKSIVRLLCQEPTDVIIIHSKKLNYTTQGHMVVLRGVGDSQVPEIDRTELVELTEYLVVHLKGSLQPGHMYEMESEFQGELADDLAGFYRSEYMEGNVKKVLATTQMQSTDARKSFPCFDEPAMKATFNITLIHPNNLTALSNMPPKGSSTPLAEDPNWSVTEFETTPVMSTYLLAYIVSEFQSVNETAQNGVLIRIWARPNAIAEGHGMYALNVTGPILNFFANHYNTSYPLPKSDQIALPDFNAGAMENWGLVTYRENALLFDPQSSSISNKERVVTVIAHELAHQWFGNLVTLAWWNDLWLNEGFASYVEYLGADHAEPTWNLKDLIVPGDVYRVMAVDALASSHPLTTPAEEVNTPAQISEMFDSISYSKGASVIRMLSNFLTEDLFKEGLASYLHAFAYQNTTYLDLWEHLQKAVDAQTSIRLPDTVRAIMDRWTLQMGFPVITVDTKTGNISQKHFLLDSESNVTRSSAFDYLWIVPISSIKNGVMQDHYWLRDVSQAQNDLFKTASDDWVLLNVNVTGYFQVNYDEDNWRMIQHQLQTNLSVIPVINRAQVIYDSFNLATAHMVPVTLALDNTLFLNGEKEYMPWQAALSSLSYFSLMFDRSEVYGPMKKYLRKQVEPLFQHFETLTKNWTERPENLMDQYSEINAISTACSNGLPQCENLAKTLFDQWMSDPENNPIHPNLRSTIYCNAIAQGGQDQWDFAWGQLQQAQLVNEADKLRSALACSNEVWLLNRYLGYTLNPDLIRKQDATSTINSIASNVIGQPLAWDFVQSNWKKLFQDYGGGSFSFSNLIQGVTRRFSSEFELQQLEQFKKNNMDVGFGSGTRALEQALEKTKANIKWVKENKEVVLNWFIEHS

[2] = Stability of compound in rat liver homogenate at 0.4 mg/mL measured after 24 hrs by HPLC analysis; format: ADME, tissue-based; conditions: tissue homogenate
[3] = target: T2, Polyamine deacetylase HDAC10 (Homo sapiens, UniProt Q969S8); assay: Inhibition of human HDAC10 using Boc-Lys (tri-fluoroacetyl)-AMC as substrate incubated for 1 hr followed by substrate addition and further incubated for 2 hrs by fluorescence assay
T2 sequence (Q969S8 whole entry): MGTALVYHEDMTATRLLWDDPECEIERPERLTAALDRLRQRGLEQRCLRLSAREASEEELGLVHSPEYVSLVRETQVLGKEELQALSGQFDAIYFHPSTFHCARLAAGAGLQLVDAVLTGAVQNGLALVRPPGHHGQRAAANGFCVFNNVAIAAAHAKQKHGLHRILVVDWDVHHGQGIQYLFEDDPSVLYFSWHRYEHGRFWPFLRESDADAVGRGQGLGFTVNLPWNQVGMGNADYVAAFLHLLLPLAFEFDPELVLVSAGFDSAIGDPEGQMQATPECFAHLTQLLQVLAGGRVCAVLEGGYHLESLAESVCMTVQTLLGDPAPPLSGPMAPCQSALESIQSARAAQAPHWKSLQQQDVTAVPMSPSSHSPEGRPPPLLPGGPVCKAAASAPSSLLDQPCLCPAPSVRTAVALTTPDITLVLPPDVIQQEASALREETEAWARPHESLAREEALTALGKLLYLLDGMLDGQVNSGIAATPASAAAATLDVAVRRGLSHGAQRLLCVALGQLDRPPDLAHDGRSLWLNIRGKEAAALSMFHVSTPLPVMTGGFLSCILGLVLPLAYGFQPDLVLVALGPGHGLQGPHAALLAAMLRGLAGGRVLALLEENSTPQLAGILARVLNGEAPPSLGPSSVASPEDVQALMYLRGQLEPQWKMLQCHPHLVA

[4] = target: T3, Protein deacetylase HDAC6 (Homo sapiens, UniProt Q9UBN7); assay: Inhibition of human HDAC6 using Boc-Lys (acetyl)-AMC as substrate incubated for 1 hr followed by substrate addition and further incubated for 2 hrs by fluorescence assay
T3 sequence (Q9UBN7 whole entry): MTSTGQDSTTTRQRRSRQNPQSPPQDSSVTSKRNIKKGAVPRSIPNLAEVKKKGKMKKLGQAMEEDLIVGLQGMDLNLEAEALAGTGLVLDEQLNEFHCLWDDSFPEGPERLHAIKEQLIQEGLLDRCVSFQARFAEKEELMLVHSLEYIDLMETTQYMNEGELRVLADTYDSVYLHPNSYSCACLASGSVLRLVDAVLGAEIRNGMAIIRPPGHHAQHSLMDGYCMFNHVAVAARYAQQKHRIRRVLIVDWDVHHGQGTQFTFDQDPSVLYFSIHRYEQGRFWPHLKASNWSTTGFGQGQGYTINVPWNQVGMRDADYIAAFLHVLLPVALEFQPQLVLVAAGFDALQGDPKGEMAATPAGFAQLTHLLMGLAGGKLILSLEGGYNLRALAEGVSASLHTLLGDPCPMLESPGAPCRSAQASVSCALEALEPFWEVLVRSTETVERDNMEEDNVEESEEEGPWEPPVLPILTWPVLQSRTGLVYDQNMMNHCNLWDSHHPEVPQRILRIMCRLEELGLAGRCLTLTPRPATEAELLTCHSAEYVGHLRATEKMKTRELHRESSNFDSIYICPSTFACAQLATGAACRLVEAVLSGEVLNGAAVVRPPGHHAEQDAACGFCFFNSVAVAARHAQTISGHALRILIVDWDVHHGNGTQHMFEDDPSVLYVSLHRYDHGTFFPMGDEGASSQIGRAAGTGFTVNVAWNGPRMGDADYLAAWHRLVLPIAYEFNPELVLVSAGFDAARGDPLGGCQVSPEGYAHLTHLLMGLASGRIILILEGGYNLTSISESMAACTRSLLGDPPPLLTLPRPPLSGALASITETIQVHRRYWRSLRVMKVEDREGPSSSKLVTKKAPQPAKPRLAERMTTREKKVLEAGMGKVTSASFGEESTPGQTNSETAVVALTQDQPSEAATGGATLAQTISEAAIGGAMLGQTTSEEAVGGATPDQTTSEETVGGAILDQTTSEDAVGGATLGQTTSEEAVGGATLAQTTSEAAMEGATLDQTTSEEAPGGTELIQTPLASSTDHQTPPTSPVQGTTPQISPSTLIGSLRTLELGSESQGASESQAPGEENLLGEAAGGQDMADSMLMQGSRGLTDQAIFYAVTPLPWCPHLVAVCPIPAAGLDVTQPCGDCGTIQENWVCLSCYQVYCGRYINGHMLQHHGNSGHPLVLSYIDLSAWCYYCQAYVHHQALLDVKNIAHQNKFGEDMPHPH

IC50 [1]: 0.53 µM | Stability [2]: Stable | IC50 [3]: > 10 µM | IC50 [4]: > 10 µM
Compound: CCCNNC(=O)c1ccc(CNC(=O)[C@H](CC(C)C)NC(=O)[C@@H](O)[C@H](N)Cc2ccccc2)cc1.Cl
